Measurements: publication PMC8715118, “Assessing potentiation of the (α4)3(β2)2 nicotinic acetylcholine receptor by the allosteric agonist CMPI” (The Journal of Biological Chemistry, 2021)
Several values for one entry are separate records, joined by “and”; a condition that tells them apart may be missing. Equal entries are not always repeated. Where two headings read alike, the source gives them in different places.

Columns and labels:
Format in all cases: cell-based
[1] = molecular target: T1, (α4K64T)3(β2)2 nAChR (Homo sapiens, UniProt P17787+P43681, K90T); experiment: Two-electrode voltage-clamp, oocytes expressing (α4K64T)3(β2)2 nAChR
T1 construct: expressed in transfected cells; host or cells: Xenopus laevis oocytes injected with cRNA, 8:1 α4:β2
T1 sequence (P43681 27-627 K90T): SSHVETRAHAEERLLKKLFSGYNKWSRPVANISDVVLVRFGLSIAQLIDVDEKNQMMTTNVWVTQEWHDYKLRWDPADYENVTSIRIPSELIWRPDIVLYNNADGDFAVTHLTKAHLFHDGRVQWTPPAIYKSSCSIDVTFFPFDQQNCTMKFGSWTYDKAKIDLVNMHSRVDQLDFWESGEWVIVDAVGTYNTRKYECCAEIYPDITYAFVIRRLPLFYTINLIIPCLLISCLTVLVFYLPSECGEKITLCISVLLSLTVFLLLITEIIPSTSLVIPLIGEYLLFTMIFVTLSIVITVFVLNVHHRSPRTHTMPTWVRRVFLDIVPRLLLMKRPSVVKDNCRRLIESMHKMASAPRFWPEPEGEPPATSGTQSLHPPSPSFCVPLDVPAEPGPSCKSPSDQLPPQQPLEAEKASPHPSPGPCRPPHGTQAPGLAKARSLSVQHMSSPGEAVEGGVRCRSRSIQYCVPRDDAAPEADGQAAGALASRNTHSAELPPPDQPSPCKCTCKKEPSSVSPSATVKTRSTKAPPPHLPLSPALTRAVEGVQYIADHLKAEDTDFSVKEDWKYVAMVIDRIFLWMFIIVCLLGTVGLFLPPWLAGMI
T1 sequence (P17787 26-502): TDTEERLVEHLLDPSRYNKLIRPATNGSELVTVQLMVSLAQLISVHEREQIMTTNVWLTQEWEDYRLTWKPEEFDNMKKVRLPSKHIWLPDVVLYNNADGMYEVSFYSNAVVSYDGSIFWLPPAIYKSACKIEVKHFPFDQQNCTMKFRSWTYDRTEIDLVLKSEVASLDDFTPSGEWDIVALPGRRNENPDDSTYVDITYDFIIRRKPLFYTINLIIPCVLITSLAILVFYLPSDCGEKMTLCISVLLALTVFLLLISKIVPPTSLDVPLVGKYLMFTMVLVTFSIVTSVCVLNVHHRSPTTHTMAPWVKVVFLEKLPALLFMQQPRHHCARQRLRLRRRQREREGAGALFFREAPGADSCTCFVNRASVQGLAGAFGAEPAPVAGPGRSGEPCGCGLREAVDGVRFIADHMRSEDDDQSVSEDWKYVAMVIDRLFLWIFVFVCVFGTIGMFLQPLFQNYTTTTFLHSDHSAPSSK
Procedure: (§1) Oocytes-positive female Xenopus laevis were purchased from NASCO, and all procedures were performed according to an animal use protocol approved by the Institutional Animals Care and Use Committee of The University of Texas Health Science Center at Tyler. Ovarian lobules were surgically harvested, treated with collagenase type 2, and Stage V and VI oocytes were visually selected and maintained at 18 °C in modified ND96-gentamicin buffer (96 mM NaCl, 2 mM KCl, 1.8 mM CaCl2, 1 mM MgCl2, 5 mM Hepes, and 50 μg/ml gentamicin, pH 7.6).
(§2) pSP64 Poly(A) plasmids with cDNA encoding for human α4 or β2 nAChR subunit were used to prepare cRNA transcripts suitable for oocyte expression. The plasmids were linearized with AseI (hα4) and PvuII (hβ2), then cRNA transcripts were prepared in vitro using mMESSAGE mMACHINE high yield-capped RNA transcription kits (Ambion, Thermo Fisher Scientific), purified on NucAway Spin column (Invitrogen, Thermo Fisher Scientific), and stored at −80 °C until used. Point mutations within the plasmid encoding the α4 nAChR subunit were introduced using QuikChange II Site-Directed Mutagenesis Kit (Agilent Technologies), as described previously ([28]). To generate amino acid substitutions (K64T, E66I, H116V, H116L, and H116A), two custom-designed complementary oligos containing the desired mutation were used (Integrated DNA Technologies). The forward primers were as the following with the codon for mutated amino acids are underlined and nucleotide(s) changes are bolded and italicized:
(§3) The oocytes were injected with 10 to 50 ng of a cRNA mix containing α4 (WT or mutant) and β2 RNAs at ratios of 8:1(α4:β) or 1:8 (α4:β2) to bias expression toward (α4)3(β2)2 or (α4)2(β2)3 nAChRs, respectively. The injection of oocytes with RNAs mixture containing four folds or higher α4 RNA than β2 RNA have been established to express receptor population that is made up of three α4 and two β2 subunits ([9], [12], [28], [43], [44], [45]).
(§4) 24 to 72 h after cRNA injection, Xenopus oocytes were placed in a custom-made recording chamber that is connected to an eight-channel automated perfusion system (Warner Instruments) and perfused with recording buffer (100 mM NaCl, 2 mM KCl, 1 mM CaCl2, 0.8 mM MgCl2, 1 mM EGTA, and 10 mM Hepes, pH 7.5). Unless otherwise specified in figure legends, each recording run included several drug applications (10 s of an agonist with or without CMPI or NS9283) separated by 3 to 4 min buffer wash intervals. Between recording runs, the oocytes were washed with recording buffer for at last 5 min. […] The currents were digitized using Digidata 1550A (Axon Instruments, Molecular Devices), and the peak currents were quantified using pCLAMP 10 (Axon Instruments), then normalized and analyzed using Excel 2010 (Microsoft) and SigmaPlot 11.0 (Systat Software). […]

[2] = molecular target: T2, (α4E66I)3(β2)2 nAChR (Homo sapiens, UniProt P17787+P43681, E92I); experiment: Two-electrode voltage-clamp, oocytes expressing (α4E66I)3(β2)2 nAChR
T2 construct: expressed in transfected cells; host or cells: Xenopus laevis oocytes injected with cRNA, 8:1 α4:β2
T2 sequence (P43681 27-627 E92I): as the sequence (P43681 27-627 K90T) above, with T64K, E66I counted along it
T2 sequence (P17787 26-502): as the sequence (P17787 26-502) above
Procedure: as §1, §2, §3, §4

[3] = molecular target: T3, (α4H116L)3(β2)2 nAChR (Homo sapiens, UniProt P17787+P43681, H142L); experiment: Two-electrode voltage-clamp, oocytes expressing (α4H116L)3(β2)2 nAChR
T3 construct: expressed in transfected cells; host or cells: Xenopus laevis oocytes injected with cRNA, 8:1 α4:β2
T3 sequence (P43681 27-627 H142L): as the sequence (P43681 27-627 K90T) above, with T64K, H116L counted along it
T3 sequence (P17787 26-502): as the sequence (P17787 26-502) above
Procedure: as §1, §2, §3, §4

[4] = molecular target: T4, (α4H116V)3(β2)2 nAChR (Homo sapiens, UniProt P17787+P43681, H142V); experiment: Two-electrode voltage-clamp, oocytes expressing (α4H116V)3(β2)2 nAChR
T4 construct: expressed in transfected cells; host or cells: Xenopus laevis oocytes injected with cRNA, 8:1 α4:β2
T4 sequence (P43681 27-627 H142V): as the sequence (P43681 27-627 K90T) above, with T64K, H116V counted along it
T4 sequence (P17787 26-502): as the sequence (P17787 26-502) above
Procedure: as §1, §2, §3, §4

[5] = molecular target: T5, (α4)3(β2)2 nAChR (Homo sapiens, UniProt P17787+P43681); experiment: Mechanistic (Monod-Wyman-Changeux two-state model) analysis of current responses, WT (α4)3(β2)2 nAChR
T5 construct: expressed in transfected cells; host or cells: Xenopus laevis oocytes injected with cRNA, 8:1 α4:β2
T5 sequence (P43681 27-627): as the sequence (P43681 27-627 K90T) above, with T64K counted along it
T5 sequence (P17787 26-502): as the sequence (P17787 26-502) above
From the text: To gain mechanistic insight into receptor activation in the presence of CMPI, we analyzed the currents in the framework of a cyclic two-state (resting and active) allosteric activation model ([31], [32], [33]). In this model, channel opening is mediated by stabilization of the active state by an agonist that, by definition, has higher affinity to the active than resting state.
We commenced by converting the raw amplitudes of current responses to units of probability of being in the active state (PA units).
Further analysis of electrophysiological data was conducted in the framework of the two-state concerted transition model, adapted from the MWC cyclic model originally used to describe enzyme function ([31], [32], [33]). The raw peak amplitudes of current responses were converted to units of probability of being in the active state (PA).
The numbers of α4:β2 and α4:α4 binding sites (Nα4:β2 and Nα4:α4) were constrained to 2 and 1, respectively.
The concentration-response curve for TC-2559 was fitted to the following equation:(3) PA=1/1+L[1+[TC-2559]/KR,TC-2559,α4:β2/1+[TC-2559]/(KR,TC-2559,α4:β2cTC-2559,α4:β2)]^Nα4:β2
The concentration-response data were analyzed using Equation 3, with the value of L modified to reflect receptor activation by TC-2559, and the affinity and efficacy terms in the equation reflecting the values for CMPI. The number of binding sites for CMPI in Equation 3 was constrained to 1.
Curve fitting was done using Origin 2020 (OriginLab Corp). The results are reported as best-fit parameter ±SD of the fit. All data are included in the analysis.

Cc1c(-c2cc(-c3ccccc3Cl)no2)cnn1C1CCNCC1 [CMPI, 3-(2-chlorophenyl)-5-(5-methyl-1-(piperidin-4-yl)-1H-pyrrazol-4-yl)isoxazole]
potentiation fold (Ave ± SD), agonist + 1 μM modulator / agonist alone ([1]; ACh (1 mM)): 0.91 ± 0.08
potentiation fold (Ave ± SD), agonist + 1 μM modulator / agonist alone ([1]; TC 2559 (30 μM)): 1.17 ± 0.21
potentiation fold (Ave ± SD), agonist + 1 μM modulator / agonist alone ([2]; ACh (1 mM)): 0.83 ± 0.10
potentiation fold (Ave ± SD), agonist + 1 μM modulator / agonist alone ([2]; TC 2559 (30 μM)): 0.99 ± 0.15
potentiation fold (Ave ± SD), agonist + 1 μM modulator / agonist alone ([3]; ACh (1 mM)): 0.82 ± 0.05
potentiation fold (Ave ± SD), agonist + 1 μM modulator / agonist alone ([3]; TC 2559 (30 μM)): 4.58 ± 0.24
potentiation fold (Ave ± SD), agonist + 1 μM modulator / agonist alone ([4]; ACh (1 mM)): 0.76 ± 0.05
potentiation fold (Ave ± SD), agonist + 1 μM modulator / agonist alone ([4]; TC 2559 (30 μM)): 3.01 ± 0.39
free energy change toward stabilization of the active state ([5]; CMPI at the α4:α4 interface, from 1 μM TC-2559 background dataset): -1.42 kcal/mol
ΔGgating ([5]; CMPI at the α4:α4 site, from mean parameters): -1.35 kcal/mol
cCMPI,α4:α4 ([5]; background of 1 μM TC-2559): 0.090 ± 0.004
Kd ([5]; background of 1 μM TC-2559, 0.01 to 3 μM CMPI, read-out: KR,CMPI,α4:α4): 170 ± 30 nM
cCMPI,α4:α4 ([5]; background of 1 μM cytisine): 0.074 ± 0.009
Kd ([5]; background of 1 μM cytisine, read-out: KR,CMPI,α4:α4): 430 ± 170 nM
cCMPI,α4:α4 ([5]; background of 1 μM nicotine): 0.065 ± 0.007
Kd ([5]; background of 1 μM nicotine, read-out: KR,CMPI,α4:α4): 400 ± 100 nM
cCMPI,α4:α4 ([5]; background of 10 μM ACh): 0.145 ± 0.008
Kd ([5]; background of 10 μM ACh, read-out: KR,CMPI,α4:α4): 290 ± 60 nM
cCMPI,α4:α4 ([5]; background of 10 μM TC-2559): 0.129 ± 0.009
Kd ([5]; background of 10 μM TC-2559, read-out: KR,CMPI,α4:α4): 90 ± 20 nM
Kd ([5]; five approaches, read-out: KR,CMPI,α4:α4, range of estimates): 90 to 430 nM
mean cCMPI,α4:α4 ([5]; mean of the five approaches): 0.101 ± 0.035 and 0.101
Kd ([5]; mean of the five approaches, read-out: mean KR,CMPI,α4:α4): 280 ± 150 nM
